# From US12589156B2, “Benzimidazole and benzimidazolone based protac compounds for the targeted degradation of leucine rich repeat kinase 2 (LRRK2)” (Arvinas Operations, Inc., priority 2023, dated 2026)
# Biological target: T1, WT LRRK2 (Homo sapiens, UniProt Q5S007)
# T1 construct: endogenous in cells; host or cells: HEK293 (endogenous LRRK2 gene knock-in tagged with HiBit; stably expressing CMV-driven firefly luciferase)
# Experiment: LRRK2 HiBit degradation assay (Nano-Glo Dual Luciferase) in HEK293 cells with HiBit-tagged endogenous LRRK2
# Format: cell-based
# Settings: for Dmax / WT LRRK2 **Dmax (%): maximal degradation
# Summary of the method: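 HEK293 cells carrying endogenous C-terminally HiBit-tagged LRRK2 and stably expressing CMV-driven firefly luciferase were treated for 24 h at 37° C with an 11-point 1:3 series from a 1 μM final top concentration. Nano-Glo Dual Luciferase read LRRK2-HiBit against firefly signal. Alamar Blue gave viability, and signals were normalized to DMSO median before curve fitting.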
# [1] = HEK293, Table 2, HiBit-tagged LRRK2 in HEK293 cells, 24 hours treatment
# [2] = HEK293, Table 3, comparison with direct comparators
# [3] = Table 2, HiBit-tagged LRRK2 in HEK293 cells, 24 hours treatment, starting concentration 1 μM
# [4] = Table 3, comparison with direct comparators, HiBit-tagged LRRK2 in HEK293 cells, 24 hours treatment
# [5] = Table 2, HiBit-tagged LRRK2 in HEK293 cells, 24 hours treatment
# T1 sequence (Q5S007 whole entry): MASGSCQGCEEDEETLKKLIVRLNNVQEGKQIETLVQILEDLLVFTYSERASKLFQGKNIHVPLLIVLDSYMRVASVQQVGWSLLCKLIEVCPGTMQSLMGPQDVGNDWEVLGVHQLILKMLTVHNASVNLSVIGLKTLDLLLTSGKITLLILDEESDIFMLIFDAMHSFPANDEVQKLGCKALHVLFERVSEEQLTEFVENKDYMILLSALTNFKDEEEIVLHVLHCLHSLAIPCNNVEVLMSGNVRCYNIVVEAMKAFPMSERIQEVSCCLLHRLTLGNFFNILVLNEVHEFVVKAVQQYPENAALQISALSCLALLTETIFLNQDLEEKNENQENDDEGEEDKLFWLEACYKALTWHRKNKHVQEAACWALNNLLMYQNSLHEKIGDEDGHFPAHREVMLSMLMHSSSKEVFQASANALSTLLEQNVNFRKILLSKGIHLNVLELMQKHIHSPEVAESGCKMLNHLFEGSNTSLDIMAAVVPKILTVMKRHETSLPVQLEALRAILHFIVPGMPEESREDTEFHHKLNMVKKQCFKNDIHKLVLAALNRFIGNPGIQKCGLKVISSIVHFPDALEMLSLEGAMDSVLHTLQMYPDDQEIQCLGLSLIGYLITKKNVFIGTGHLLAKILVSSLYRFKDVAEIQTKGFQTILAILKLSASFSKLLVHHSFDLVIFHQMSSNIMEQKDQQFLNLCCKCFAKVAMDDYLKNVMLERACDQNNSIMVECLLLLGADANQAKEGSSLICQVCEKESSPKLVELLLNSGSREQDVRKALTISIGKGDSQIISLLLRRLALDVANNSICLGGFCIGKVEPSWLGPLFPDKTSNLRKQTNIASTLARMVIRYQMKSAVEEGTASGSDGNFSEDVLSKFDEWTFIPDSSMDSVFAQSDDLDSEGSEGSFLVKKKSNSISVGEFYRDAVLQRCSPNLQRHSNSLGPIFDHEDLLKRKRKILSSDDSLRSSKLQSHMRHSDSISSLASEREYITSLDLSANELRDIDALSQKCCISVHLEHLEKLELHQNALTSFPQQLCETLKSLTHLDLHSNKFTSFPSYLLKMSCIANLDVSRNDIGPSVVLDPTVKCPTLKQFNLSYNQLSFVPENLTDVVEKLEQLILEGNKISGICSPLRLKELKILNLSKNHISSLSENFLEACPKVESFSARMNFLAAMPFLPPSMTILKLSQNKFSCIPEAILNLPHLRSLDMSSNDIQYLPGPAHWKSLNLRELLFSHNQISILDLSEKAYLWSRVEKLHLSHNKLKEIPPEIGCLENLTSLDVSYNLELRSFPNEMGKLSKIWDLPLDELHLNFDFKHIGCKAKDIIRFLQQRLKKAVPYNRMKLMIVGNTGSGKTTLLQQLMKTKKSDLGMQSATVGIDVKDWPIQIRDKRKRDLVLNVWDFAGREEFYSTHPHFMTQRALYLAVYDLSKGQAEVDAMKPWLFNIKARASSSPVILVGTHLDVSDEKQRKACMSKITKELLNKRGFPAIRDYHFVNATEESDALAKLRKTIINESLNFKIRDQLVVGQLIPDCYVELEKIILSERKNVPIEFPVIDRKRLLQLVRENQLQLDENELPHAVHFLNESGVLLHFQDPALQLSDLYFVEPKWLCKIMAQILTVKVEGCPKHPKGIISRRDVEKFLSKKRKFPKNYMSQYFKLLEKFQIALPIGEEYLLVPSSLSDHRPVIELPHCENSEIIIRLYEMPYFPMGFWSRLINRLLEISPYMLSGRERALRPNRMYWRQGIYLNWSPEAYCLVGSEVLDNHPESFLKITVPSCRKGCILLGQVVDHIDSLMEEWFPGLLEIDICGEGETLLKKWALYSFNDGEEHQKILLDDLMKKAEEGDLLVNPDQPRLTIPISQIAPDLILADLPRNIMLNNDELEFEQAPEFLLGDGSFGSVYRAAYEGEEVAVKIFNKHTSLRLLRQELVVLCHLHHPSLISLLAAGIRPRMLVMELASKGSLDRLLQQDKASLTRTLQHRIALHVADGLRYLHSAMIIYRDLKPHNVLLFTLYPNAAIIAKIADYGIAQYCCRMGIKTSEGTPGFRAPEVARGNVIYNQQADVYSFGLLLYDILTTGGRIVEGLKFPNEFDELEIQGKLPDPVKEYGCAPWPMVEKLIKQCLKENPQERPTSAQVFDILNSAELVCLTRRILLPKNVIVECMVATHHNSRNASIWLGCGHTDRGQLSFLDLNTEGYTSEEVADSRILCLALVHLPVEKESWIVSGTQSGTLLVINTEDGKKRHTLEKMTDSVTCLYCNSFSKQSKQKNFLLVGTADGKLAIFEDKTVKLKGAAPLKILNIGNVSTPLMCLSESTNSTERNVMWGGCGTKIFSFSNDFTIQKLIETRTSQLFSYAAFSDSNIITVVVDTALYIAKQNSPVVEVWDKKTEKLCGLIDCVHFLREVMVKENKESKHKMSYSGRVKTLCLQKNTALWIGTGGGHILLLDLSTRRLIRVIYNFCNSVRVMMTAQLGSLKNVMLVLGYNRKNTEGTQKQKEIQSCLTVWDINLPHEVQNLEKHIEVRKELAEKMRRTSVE
SMILES,Dmax [1] [%],Dmax [2] [%],DC50 [3] [nM],DC50 [4] [nM],Dmax [5] [%],WT LRRK2 **Dmax (%) [5] [%]
"CC1(Oc2ccc3[nH]nc(-c4cc(N5CCN(C[C@H]6CC[C@H](OC7CCN(c8ccc9c(ncn9C9CCC(=O)NC9=O)c8F)CC7)CC6)CC5)ncn4)c3c2)CC1 (stereo partly drawn) [Compound 45, rel-3-[4-fluoro-5-(4-{[(1r,4r)-4-[(4-{6-[5-(1-methylcyclopropoxy)-1H-indazol-3-yl]pyrimidin-4-yl}piperazin-1-yl)methyl]cyclohexyl]oxy}piperidin-1-yl)-1H-1,3-benzodiazol-1-yl]piperidine-2,6-dione]",56,56,3.9,3.9,–,–
"CC(C)Oc1cc2c(-c3cc(N4CCC(O[C@H]5C[C@H](OC6CCN(c7ccc8c(c7)n(C)c(=O)n8C7CCC(=O)NC7=O)CC6)C5)CC4)ncn3)n[nH]c2cn1 (single isomer, unassigned) [Compound 31, rel-3-(3-methyl-2-oxo-5-{4-[(1r,3r)-3-[(1-{6-[5-(propan-2-yloxy)-1H-pyrazolo[3,4-c]pyridin-3-yl]pyrimidin-4-yl}piperidin-4-yl)oxy]cyclobutoxy]piperidin-1-yl}-2,3-dihydro-1H-1,3-benzodiazol-1-yl)piperidine-2,6-dione]",–,–,160,–,61,–
"CC(C)n1c(=O)n(C2CCC(=O)NC2=O)c2ccc(N3CCC(CN4CCN(CC5CCN(c6cc(-c7n[nH]c8cnc(OC9(C)CC9)cc78)ncn6)CC5)C(C)(C)C4)CC3)cc21 (stereo not drawn) [Compound 51, 3-{5-[4-({3,3-dimethyl-4-[(1-{6-[5-(1-methylcyclopropoxy)-1H-pyrazolo[3,4-c]pyridin-3-yl]pyrimidin-4-yl}piperidin-4-yl)methyl]piperazin-1-yl}methyl)piperidin-1-yl]-2-oxo-3-(propan-2-yl)-2,3-dihydro-1H-1,3-benzodiazol-1-yl}piperidine-2,6-dione]",64,–,1.1,–,–,–
"Cn1c(=O)n(C2CCC(=O)NC2=O)c2cccc(N3CCC(O[C@H]4CC[C@H](CN5CCN(c6cc(-c7n[nH]c8cnc(OC9(C)CC9)cc78)ncn6)CC5)CC4)CC3)c21 (single isomer, unassigned) [Compound 46, rel-3-[3-methyl-2-oxo-4-(4-{[(1r,4r)-4-[(4-{6-[5-(1-methylcyclopropoxy)-1H-pyrazolo[3,4-c]pyridin-3-yl]pyrimidin-4-yl}piperazin-1-yl)methyl]cyclohexyl]oxy}piperidin-1-yl)-2,3-dihydro-1H-1,3-benzodiazol-1-yl]piperidine-2,6-dione]",90,–,2.1,–,–,–
"CC(C)n1c(=O)n(C2CCC(=O)NC2=O)c2ccc(N3CCC(OC4CCC(OC5CCN(c6cc(-c7n[nH]c8cnc(OC9(C)CC9)cc78)ncn6)CC5)CC4)CC3)cc21 (stereo not drawn) [Compound 26, rel-3-[2-oxo-3-(propan-2-yl)-5-(4-{[(1r,4r)-4-[(1-{6-[5-(1-methylcyclopropoxy)-1H-pyrazolo[3,4-c]pyridin-3-yl]pyrimidin-4-yl}piperidin-4-yl)oxy]cyclohexyl]oxy}piperidin-1-yl)-2,3-dihydro-1H-1,3-benzodiazol-1-yl]piperidine-2,6-dione]",–,–,1.1,–,–,69
"COc1ccc2[nH]nc(-c3cc(N4CCN(C[C@H]5CC[C@H](OC6CCN(c7ccc8c(c7)n(C)c(=O)n8C7CCC(=O)NC7=O)CC6)CC5)CC4)ncn3)c2c1 (single isomer, unassigned) [Compound 60, rel-3-[3-methyl-2-oxo-5-(4-{[(1r,4r)-4-({4-[6-(5-methoxy-1H-indazol-3-yl)pyrimidin-4-yl]piperazin-1-yl}methyl)cyclohexyl]oxy}piperidin-1-yl)-2,3-dihydro-1H-1,3-benzodiazol-1-yl]piperidine-2,6-dione]",38,–,0.67,–,–,–
"CC(C)n1c(=O)n(C2CCC(=O)NC2=O)c2ccc(N3CCC(O[C@H]4CC[C@H](CN5CCN(c6cc(-c7n[nH]c8ccc(OC9(C)CC9)cc78)ncn6)CC5)CC4)CC3)cc21 (single isomer, unassigned) [Compound 49, rel-3-[2-oxo-3-(propan-2-yl)-5-(4-{[(1r,4r)-4-[(4-{6-[5-(1-methylcyclopropoxy)-1H-indazol-3-yl]pyrimidin-4-yl}piperazin-1-yl)methyl]cyclohexyl]oxy}piperidin-1-yl)-2,3-dihydro-1H-1,3-benzodiazol-1-yl]piperidine-2,6-dione]",55,–,0.44,–,–,–
"CC1(Oc2cc3c(-c4cc(N5CCN(C[C@H]6CC[C@H](OC7CCN(c8ccc9c(c8F)CN(C8CCC(=O)NC8=O)C9=O)CC7)CC6)CC5)ncn4)n[nH]c3cn2)CC1 (stereo partly drawn) [Comparative Example 3, reference compound]",–,65,–,4.3,–,–
"CC(C)Oc1cc2c(-c3cc(N4CCN(C[C@H]5CC[C@H](OC6CCN(c7ccc8c(c7)n(C(C)C)c(=O)n8C7CCC(=O)NC7=O)CC6)CC5)CC4)ncn3)n[nH]c2cn1 (single isomer, unassigned) [Compound 59, rel-3-[2-oxo-3-(propan-2-yl)-5-(4-{[(1r,4r)-4-[(4-{6-[5-(propan-2-yloxy)-1H-pyrazolo[3,4-c]pyridin-3-yl]pyrimidin-4-yl}piperazin-1-yl)methyl]cyclohexyl]oxy}piperidin-1-yl)-2,3-dihydro-1H-1,3-benzodiazol-1-yl]piperidine-2,6-dione]",41,–,0.74,–,–,–
CC(C)Oc1cc2c(-c3cc(N4CCC(OC5CCC(OC6CCN(c7ccc8c(c7)n(C)c(=O)n8C7CCC(=O)NC7=O)CC6)CC5)CC4)ncn3)n[nH]c2cn1 (stereo not drawn) [Compound 28],–,–,17,–,–,60
"CC1(Oc2ccc3[nH]nc(-c4cc(N5CCC(CN6CCN(CC7CCN(c8cccc9c8ncn9C8CCC(=O)NC8=O)CC7)CC6)CC5)ncn4)c3c2)CC1 (stereo not drawn) [Compound 70, 3-{4-[4-({4-[(1-{6-[5-(1-methylcyclopropoxy)-1H-indazol-3-yl]pyrimidin-4-yl}piperidin-4-yl)methyl]piperazin-1-yl}methyl)piperidin-1-yl]-1H-1,3-benzodiazol-1-yl}piperidine-2,6-dione]",33,33,20,20,–,–
"CC1(Oc2ccc3[nH]nc(-c4cc(N5CCN(CC6CCC(OC7CCN(c8ccc9ncn(C%10CCC(=O)NC%10=O)c9c8)CC7)CC6)CC5)ncn4)c3c2)CC1 (stereo not drawn) [Compound 4, 3-[6-(4-{[(1r,4r)-4-[(4-{6-[5-(1-methylcyclopropoxy)-1H-indazol-3-yl]pyrimidin-4-yl}piperazin-1-yl)methyl]cyclohexyl]oxy}piperidin-1-yl)-1H-1,3-benzodiazol-1-yl]piperidine-2,6-dione]",–,–,7.5,–,–,62
"Cn1c(=O)n(C2CCC(=O)NC2=O)c2cccc(N3CCC(CN4CCN(CC5CCN(c6cc(-c7n[nH]c8cnc(OC9(C)CC9)cc78)ncn6)CC5)C(C)(C)C4)CC3)c21 (stereo not drawn) [Compound 47, 3-{4-[4-({3,3-dimethyl-4-[(1-{6-[5-(1-methylcyclopropoxy)-1H-pyrazolo[3,4-c]pyridin-3-yl]pyrimidin-4-yl}piperidin-4-yl)methyl]piperazin-1-yl}methyl)piperidin-1-yl]-3-methyl-2-oxo-2,3-dihydro-1H-1,3-benzodiazol-1-yl}piperidine-2,6-dione]",100,–,24,–,–,–
"Cn1c(=O)n(C2CCC(=O)NC2=O)c2ccc(N3CCC(O[C@H]4C[C@H](COC5CCN(c6cc(-c7n[nH]c8cnc(OC9(C)CC9)cc78)ncn6)CC5)C4)CC3)cc21 (single isomer, unassigned) [Compound 34, rel-3-(3-methyl-2-oxo-5-{4-[(1r,3r)-3-{[(1-{6-[5-(1-methylcyclopropoxy)-1H-pyrazolo[3,4-c]pyridin-3-yl]pyrimidin-4-yl}piperidin-4-yl)oxy]methyl}cyclobutoxy]piperidin-1-yl}-2,3-dihydro-1H-1,3-benzodiazol-1-yl)piperidine-2,6-dione]",57,–,0.42,–,–,–
"COc1cc2c(-c3cc(N4CCN(C[C@H]5CC[C@H](OC6CCN(c7ccc8c(c7)n(C)c(=O)n8C7CCC(=O)NC7=O)CC6)CC5)CC4)ncn3)n[nH]c2cn1 (single isomer, unassigned) [Compound 21, rel-3-[3-methyl-2-oxo-5-(4-{[(1r,4r)-4-{[4-(6-{5-methoxy-1H-pyrazolo[3,4-c]pyridin-3-yl}pyrimidin-4-yl)piperazin-1-yl]methyl}cyclohexyl]oxy}piperidin-1-yl)-2,3-dihydro-1H-1,3-benzodiazol-1-yl]piperidine-2,6-dione]",–,–,≥ 1000,–,–,–
"COc1c(N2CCC(CN3CCN(CC4CCN(c5cc(-c6n[nH]c7ccc(OC8(C)CC8)cc67)ncn5)CC4)C(C)(C)C3)CC2)ccc2c1CN(C1CCC(=O)NC1=O)C2=O (stereo not drawn) [Comparative Example 5, reference compound]",–,65,–,1.6,–,–
"Cn1c(=O)n(C2CCC(=O)NC2=O)c2ccc(N3CCC(CN4CCN(CC5CCN(c6cc(-c7n[nH]c8cnc(OC9(C)CC9)cc78)ncn6)CC5)C(C)(C)C4)CC3)cc21 (stereo not drawn) [Compound 48, 3-{5-[4-({3,3-dimethyl-4-[(1-{6-[5-(1-methylcyclopropoxy)-1H-pyrazolo[3,4-c]pyridin-3-yl]pyrimidin-4-yl}piperidin-4-yl)methyl]piperazin-1-yl}methyl)piperidin-1-yl]-3-methyl-2-oxo-2,3-dihydro-1H-1,3-benzodiazol-1-yl}piperidine-2,6-dione]",56,56,0.14,0.14,–,–
